Measured values: article PMC3536056 (Journal of immunology (Baltimore, Md. : 1950), 2012)
Entries after “also recorded” stand apart in the source; their conditions may differ.

Key:
TCR-V T cells = format: cell-based, mice; conditions: for functional avidity for TCR-V T cells (in words): 10^−7–10^−12 M peptide, versus wild type site V
[1] = system: polyclonal site V-specific T cells; assay: Intracellular IFN-γ, peptide-stimulated polyclonal site V-specific T cells; format: cell-based, mice; conditions: 10^−7–10^−12 M peptide; versus wild type site V
H-2D^b = biological target: T1, H-2D^b (Mus musculus, UniProt P01899); assay: Stability; format: binding; conditions: for half-life of peptide/H-2D^b complexes: RMA/s cells loaded overnight at 29 °C, washed, decay at 37 °C, flow cytometry; for pMHC stability (in words): versus wild type site V peptide, RMA/s decay at 37 °C
T1 sequence (P01899 25-362): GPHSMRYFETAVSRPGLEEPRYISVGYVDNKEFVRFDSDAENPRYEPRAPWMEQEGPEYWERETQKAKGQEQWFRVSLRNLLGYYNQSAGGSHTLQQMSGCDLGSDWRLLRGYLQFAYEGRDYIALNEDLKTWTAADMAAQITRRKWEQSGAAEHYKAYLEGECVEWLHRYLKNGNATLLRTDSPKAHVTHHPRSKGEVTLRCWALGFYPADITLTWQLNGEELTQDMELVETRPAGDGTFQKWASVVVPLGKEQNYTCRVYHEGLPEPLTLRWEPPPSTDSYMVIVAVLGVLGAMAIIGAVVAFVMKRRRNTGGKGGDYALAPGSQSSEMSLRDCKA
T1 sequence (P01887 21-119 partner): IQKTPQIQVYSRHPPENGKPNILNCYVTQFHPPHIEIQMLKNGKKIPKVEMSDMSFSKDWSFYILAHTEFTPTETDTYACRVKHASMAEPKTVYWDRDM

naïve TCR-V T cells = assay: In vivo proliferation of CFSE-labeled naïve TCR-V cells; set-up: species or system B6 mice; conditions: peptide s.c. 100 μg in IFA, or rVV i.v. 10^7 PFU; 3 days
D^b = conditions: Flu determinants; cited from earlier work
[2] = biological target: H-2D^b (mouse (endogenous in RMA/s)); assay: flow cytometry on cells

| Substance | half-life of peptide/H-2D^b complexes (H-2D^b) | pMHC stability (in words) (H-2D^b) | half-life of the pMHC complex [2] [hours] | also measured |
| --- | --- | --- | --- | --- |
| AGINNLDNL [Q489A] | approximately 4 hours | formed more stable pMHC than the wild type site V peptide; also recorded: most dramatic increase in pMHC stability |  | functional avidity for TCR-V T cells (in words) (TCR-V T cells): not increased; functional avidity for polyclonal site V-specific T cells (in words) [1]: not increased; TCR-V division on bypassing cross-presentation (in words) (naïve TCR-V T cells): almost all of the TCR-V cells underwent division |
| ASNENMETM [NP366–374] |  |  |  | estimated half-life of D^b pMHC (D^b): ~ 4 hours |
| PA224–233: dominant D^b-Flu determinant (SSLENFRAYV; UniProt P03433 224-233, looked up, fragment) |  |  |  | estimated half-life of D^b pMHC (D^b): ~16 hours |
| QAINNLDNL [G490A] | ~2.75 h | formed more stable pMHC than the wild type site V peptide; also recorded: moderately increased stability compared to wt site V; also recorded: modest increase in pMHC stability |  | reduction of functional avidity for TCR-V T cells (TCR-V T cells): five; functional avidity for TCR-V T cells (in words) (TCR-V T cells): not increased; functional avidity for polyclonal site V-specific T cells (in words) [1]: not increased |
| SAINNYAQKL [site I, reference compound] | greater than 4 hours | most stable |  |  |
| SV40 TAg site I peptide (…) |  |  | > 4 |  |
| SV40 TAg site V peptide (…) |  |  | 2 |  |
| site V variant peptide G490A (…) |  |  | 2.75 |  |
| site V variant peptide Q489A (…) |  |  | 4 | fold increase of relative affinity against wild type site V [2]: 4 fold |
